{
  "source": "paper PMC9515143",
  "about": "“Phosphorylation of Jhd2 by the Ras-cAMP-PKA(Tpk2) pathway regulates histone modifications and autophagy” (Nature Communications, 2022)",
  "key": {"histone modifications": {"tested_on": "histone modifications", "assay": "Effect of glucose on histone modifications in WT and ubp8∆ ubp10∆ mutant (Western blot)", "assay_type": "cell-based, budding yeast (Saccharomyces cerevisiae)", "settings": "for relative histone modification level (Figure S1c): 0.5 hr", "source_text": "To identify the signaling pathway that mediates glucose-induced H3K4me3, we first examined the effect of glucose on histone modifications that regulate Set1-catalyzed H3K4me3, including H2BK123 monoubiquitination (H2Bub) and H3R2 asymmetric dimethylation (H3R2me2a)[30]–[32]. […] We then determine whether glucose increases H3K4me3 by inducing H2Bub. As there is no H3K4me3 in the deletion mutants of RAD6 and BRE1, which catalyze H2Bub[30],[31], it is impossible to determine the effect of glucose on H3K4me3 in rad6Δ and bre1Δ mutants. We thus examined the effect of glucose on H3K4me3 in the deletion mutant of UBP8 and UBP10, which encode H2B ubiquitin proteases[33],[34]. […] We also examined the effect of glucose on the activity of Set1-containing complex (COMPASS).\nTo examine the effect of glucose on histone modifications, yeast cells were grown in 2% glucose-containing YPD (Yeast Extract Peptone Dextrose) medium until OD600 of 0.7–1.0. Cells were then collected, washed and resuspended in YP medium for 3 hr followed by treatment with different concentrations of glucose for 0.5 hr. For 1NM-PP1 (MCE, HY-13804) treatment, cells were grown in 2% YPD until OD600 of 0.7–1.0. Cells were then treated with 25 μM 1NM-PP1 for 0.5 hr. For FBP and pyruvate treatment, cells were pre-treated with Zymolase (Mpbio, 08320921) to increase the permeability. In brief, cells were grown in YPD medium until OD600 of 0.7–1.0, centrifuged and resuspended in 1 ml SB buffer (100 mM Sorbitol, 20 mM Tris pH 7.4). 10 μl Zymolase was then added and incubated at 30 °C for 15 min. The spheroplasts were washed and cultured in YPD medium containing different concentrations of FBP and pyruvate for 3 hr.\nCells were grown in 5 ml YPD or selective medium until OD600 of 0.7–1.0. Cells were harvested and lysed in alkaline lysis buffer (2 M NaOH, 8% 2-mercaptoethanol). After centrifugation, the protein pellet was resuspended in 150 μl 2×SDS-sample buffer. Protein samples were separated by 8–15% SDS-PAGE and transferred to PVDF membrane. The blots were probed with primary antibodies followed by incubation with horseradish peroxidase-labelled IgG secondary antibodies. The protein bands were visualized using the ECL Chemiluminescence Detection Kit (Bio-Rad, 170–5061) and quantified with Image J software (v.1.8.0).\nSupplementary Fi g . 1 Glu cose induces H3K4me 3 via the Ras-cAMP-PKA(T p k 2) pathway. […]\nCells were th en tr eat ed with YP medium supplement ed with differen t concentrations of glucos e for 0.5 hr. C ells were h ar vested an d the ex tract ed histones w er e anal yz ed by Western blots with indicat ed ant ibodies. To d et ect H2B monoubiquitination, H2B-F LAG strain w as used and d et ect ed with anti -F LAG ant ibody. Th e upper bands ar e monoubiquitinat ed H2B-F LAG. c E ff e c t of gl ucose on histone modifications in WT and ubp8∆ ubp10∆ mutant. WT and ubp8∆ ubp10∆ mut ant w er e gro wn in YPD medium unti l OD600 of […]\nFor Supplem ent ar y Fi g. 1b, e-g, i-k, d at a r ep res ent means ± SEM; n=3 i ndependent ex perim ents. For Supplem entar y Fi g. 1c, d ata represent means ± SEM; n=4 independent ex periments. Tw o -sided t-tests were used for statistical analysis."}, "COMPASS (Spp1-CBP)": {"tested_on": "COMPASS (Spp1-CBP)", "assay": "In vitro histone methyltransferase (HMT) assay with purified COMPASS", "assay_type": "biochemical, budding yeast (Saccharomyces cerevisiae)", "settings": "COMPASS (Spp1-CBP) purified from cells grown in 0.05% glucose", "experimental": "The HMT reactions were carried out using purified COMPASS (Spp1-CBP) and 15 μg recombinant H3 in 50 μl reaction buffer (50 mM Tris pH 8.5, 20 mM KCl, 10 mM MgCl2, 10 mM 2-mercaptoethanol, 100 μM SAM, 250 mM sucrose, protease inhibitor cocktail) at 30 °C for 0–2 hr. Reactions were quenched by adding 5 × SDS loading buffer and boiled at 95°C for 5 min. Protein was separated on a 10–20% SDS-PAGE gel followed by Western blots with the antibodies indicated.\nSupplementary Fi g . […] WT (a) and H2B-F LA G cel ls (b) wer e grown in YPD medium until OD600 of 0.7.\nCells were th en tr eat ed with YP medium supplement ed with differen t concentrations of glucos e for 0.5 hr. C ells were h ar vested an d the ex tract ed histones w er e anal yz ed by Western blots with indicat ed ant ibodies. To d et ect H2B monoubiquitination, H2B-F LAG strain w as used and d et ect ed with anti -F LAG ant ibody. Th e upper bands ar e monoubiquitinat ed H2B-F LAG. c E ff e c t of gl ucose on histone modifications in WT and ubp8∆ ubp10∆ mutant. WT and ubp8∆ ubp10∆ mut ant w er e gro wn in YPD medium unti l OD600 of 0.7. Cells wer e th en treated with YP medium supplem ent ed with di fferent con cen tr ations of gl u cos e fo r 0.5 hr. d Gluco se has no effect on the activit y of C O M PA S S . Spp1-TA P cells wer e grown in YPD medium until OD600 of 1.5. Cells were h arv est ed and then […]"}},
  "data": [
    {"smiles": "OC[C@H]1OC(O)[C@H](O)[C@@H](O)[C@@H]1O", "note": "(stereo partly drawn) [glucose]", "values": [
      {"measurement": "relative histone modification level (Figure S1c)", "setting": "histone modifications; WT, 0.5% glucose, relative to WT 0.05% = 1, replicate 1", "result": 1.436},
      {"measurement": "relative histone modification level (Figure S1c)", "setting": "histone modifications; WT, 0.5% glucose, relative to WT 0.05% = 1, replicate 2", "result": 1.642},
      {"measurement": "relative histone modification level (Figure S1c)", "setting": "histone modifications; WT, 0.5% glucose, relative to WT 0.05% = 1, replicate 3", "result": 1.498},
      {"measurement": "relative histone modification level (Figure S1c)", "setting": "histone modifications; WT, 0.5% glucose, relative to WT 0.05% = 1, replicate 4", "result": 1.3798},
      {"measurement": "relative histone modification level (Figure S1c)", "setting": "histone modifications; WT, 2% glucose, relative to WT 0.05% = 1, replicate 1", "result": 1.805},
      {"measurement": "relative histone modification level (Figure S1c)", "setting": "histone modifications; WT, 2% glucose, relative to WT 0.05% = 1, replicate 2", "result": 2.101},
      {"measurement": "relative histone modification level (Figure S1c)", "setting": "histone modifications; WT, 2% glucose, relative to WT 0.05% = 1, replicate 3", "result": 2.2062},
      {"measurement": "relative histone modification level (Figure S1c)", "setting": "histone modifications; WT, 2% glucose, relative to WT 0.05% = 1, replicate 4", "result": 1.619},
      {"measurement": "relative histone modification level (Figure S1c)", "setting": "histone modifications; WT, 4% glucose, relative to WT 0.05% = 1, replicate 1", "result": 1.732},
      {"measurement": "relative histone modification level (Figure S1c)", "setting": "histone modifications; WT, 4% glucose, relative to WT 0.05% = 1, replicate 2", "result": 2.2477},
      {"measurement": "relative histone modification level (Figure S1c)", "setting": "histone modifications; WT, 4% glucose, relative to WT 0.05% = 1, replicate 3", "result": 2.452},
      {"measurement": "relative histone modification level (Figure S1c)", "setting": "histone modifications; WT, 4% glucose, relative to WT 0.05% = 1, replicate 4", "result": 2.7285},
      {"measurement": "H3K4me3 level in ubp8Δ ubp10Δ mutant", "setting": "histone modifications; ubp8Δ ubp10Δ, glucose 0.5 hr, Western blot", "result": "H3K4me3 was still increased by glucose"},
      {"measurement": "relative histone modification level (Figure S1c)", "setting": "histone modifications; ubp8Δubp10Δ, 0.05% glucose, relative to WT 0.05% = 1, replicate 1", "result": 1.962},
      {"measurement": "relative histone modification level (Figure S1c)", "setting": "histone modifications; ubp8Δubp10Δ, 0.05% glucose, relative to WT 0.05% = 1, replicate 2", "result": 2.0252},
      {"measurement": "relative histone modification level (Figure S1c)", "setting": "histone modifications; ubp8Δubp10Δ, 0.05% glucose, relative to WT 0.05% = 1, replicate 3", "result": 1.753},
      {"measurement": "relative histone modification level (Figure S1c)", "setting": "histone modifications; ubp8Δubp10Δ, 0.05% glucose, relative to WT 0.05% = 1, replicate 4", "result": 1.8754},
      {"measurement": "relative histone modification level (Figure S1c)", "setting": "histone modifications; ubp8Δubp10Δ, 0.5% glucose, relative to WT 0.05% = 1, replicate 1", "result": 2.076},
      {"measurement": "relative histone modification level (Figure S1c)", "setting": "histone modifications; ubp8Δubp10Δ, 0.5% glucose, relative to WT 0.05% = 1, replicate 2", "result": 2.387},
      {"measurement": "relative histone modification level (Figure S1c)", "setting": "histone modifications; ubp8Δubp10Δ, 0.5% glucose, relative to WT 0.05% = 1, replicate 3", "result": 2.436},
      {"measurement": "relative histone modification level (Figure S1c)", "setting": "histone modifications; ubp8Δubp10Δ, 0.5% glucose, relative to WT 0.05% = 1, replicate 4", "result": 1.826},
      {"measurement": "relative histone modification level (Figure S1c)", "setting": "histone modifications; ubp8Δubp10Δ, 2% glucose, relative to WT 0.05% = 1, replicate 1", "result": 2.343},
      {"measurement": "relative histone modification level (Figure S1c)", "setting": "histone modifications; ubp8Δubp10Δ, 2% glucose, relative to WT 0.05% = 1, replicate 2", "result": 2.512},
      {"measurement": "relative histone modification level (Figure S1c)", "setting": "histone modifications; ubp8Δubp10Δ, 2% glucose, relative to WT 0.05% = 1, replicate 3", "result": 2.749},
      {"measurement": "relative histone modification level (Figure S1c)", "setting": "histone modifications; ubp8Δubp10Δ, 2% glucose, relative to WT 0.05% = 1, replicate 4", "result": 2.579},
      {"measurement": "relative histone modification level (Figure S1c)", "setting": "histone modifications; ubp8Δubp10Δ, 4% glucose, relative to WT 0.05% = 1, replicate 1", "result": 3.366},
      {"measurement": "relative histone modification level (Figure S1c)", "setting": "histone modifications; ubp8Δubp10Δ, 4% glucose, relative to WT 0.05% = 1, replicate 2", "result": 3.228},
      {"measurement": "relative histone modification level (Figure S1c)", "setting": "histone modifications; ubp8Δubp10Δ, 4% glucose, relative to WT 0.05% = 1, replicate 3", "result": 2.75},
      {"measurement": "relative histone modification level (Figure S1c)", "setting": "histone modifications; ubp8Δubp10Δ, 4% glucose, relative to WT 0.05% = 1, replicate 4", "result": 2.722},
      {"measurement": "HMT activity of COMPASS", "setting": "COMPASS (Spp1-CBP)", "result": "did not affect the HMT activity of COMPASS"}
    ]}
  ]
}
